Marks after values point to notes of the source that are not given here. Square brackets hold non-standard residues; d marks the D form. Ends that are not written are not given here.
Assays:
MiaPaCa cells = experiment: Growth of MiaPaCa cells measured by cell counts; assay type: cell-based, human
[1] = tested on: human pancreatic MiaPaCa cancer cell line; experiment: Inhibition of 3H-thymidine incorporation into DNA, MiaPaCa cells; assay type: cell-based
Procedure: The ability of peptides of Formula I to inhibit incorporation of [³H]thymidine into DNA of monolayer cultures the small cell lung cancer line H-69 and MiaPaCa cell line is assayed as described by Kern et al. (Cancer Res., 45, 5436 (1985).
1x10⁵ cells are plated with DME media containing 10% fetal calf serum (FCS) on Day 0. After 24 hours media is removed and replaced with DME media without serum and incubated at 37°C for 2 days. Media was then removed and replaced with DME media containing 5% FCS with or without somatostatin analog. Media with peptides was changed daily for 4 days. On day 4, 1 »Ci ³H-thymidine added and incubated an additional 17 hrs. Media is then removed and cells recovered by trypsination. DNA extracted with 1 N perchloric acid and the radioactivity measured.

GH release = settings: relative to somatostatin; cited from earlier work
[2] = tested on: human mammary cell line MDA-MB-231; settings: at 10 »g dose; cited from earlier work
[3] = in vivo; cited from earlier work

N[C@@H](Cc1ccc(N(CCCl)CCCl)cc1)C(=O)O [Melphalan, 4-[bis{2-chloroethyl}amino]-phenylalanine]
% Decrease in cell number (MiaPaCa cells; Dose 10⁻⁶ M): 29** %
% Decrease in cell number (MiaPaCa cells; Dose 10⁻⁷ M): 1%
% Decrease in cell number (MiaPaCa cells; Dose 10⁻⁸ M): 1%
% inhibition of ³H-thymidine incorp. ([1]; Dose 10⁻⁶ M): 20%
% inhibition of ³H-thymidine incorp. ([1]; Dose 10⁻⁷ M): 18%

D-Phe-Cys-Tyr-D-Trp-Lys-Val-Cys-Thr-NH₂
times more potent than somatostatin in test for inhibition of GH release (GH release): more than 100 times

pGlu-His-Trp-Ser-Tyr-D-Lys[Ahx-A₂bu(SAL)₂(Cu)]-Leu-Arg-Pro-Gly-NH₂
inhibits the [³H]thymidine incorporation into DNA [2]: 87%

C[C@H](N)C(=O)NCC(=O)N[C@H]1CSSC[C@@H](C(=O)O)NC(=O)[C@H](CO)NC(=O)[C@H]([C@@H](C)O)NC(=O)[C@H](Cc2ccccc2)NC(=O)[C@H]([C@@H](C)O)NC(=O)[C@H](CCCCN)NC(=O)[C@H](Cc2c[nH]c3ccccc23)NC(=O)[C@H](Cc2ccccc2)NC(=O)[C@H](Cc2ccccc2)NC(=O)[C@H](CC(N)=O)NC(=O)[C@H](CCCCN)NC1=O [SS-14]
half-life in circulation [3]: about 3 min

[dF]CY[dW]KVCW-NH2 (cysteine pairing not given here)
times more potent than somatostatin in test for inhibition of GH release (GH release): more than 100 times

From patent EP0450480B1, “Somatostatin Analogues” (The Administrators of The Tulane Educational Fund, priority 1990, dated 1991)
